Measurements reported in patent US9085555B2, “Complement pathway modulators and uses thereof” (priority 2011, dated 2015).

Each compound was assayed against Factor D (Homo sapiens (Human), UniProt P00746) (assay: biochemical). Settings: not given.
Sequence of Factor D (P00746 26-253): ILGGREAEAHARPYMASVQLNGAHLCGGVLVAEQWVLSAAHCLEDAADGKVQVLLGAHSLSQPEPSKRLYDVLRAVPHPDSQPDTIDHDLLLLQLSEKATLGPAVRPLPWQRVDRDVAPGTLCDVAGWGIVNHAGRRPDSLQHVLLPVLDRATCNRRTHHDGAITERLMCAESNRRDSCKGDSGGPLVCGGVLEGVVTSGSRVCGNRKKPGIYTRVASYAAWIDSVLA
Format: biochemical
`NC(=O)n1cc(NC(=O)N2C[C@@H](N)C[C@H]2C(=O)NC[C@H]2CCCC[C@@H]2O)c2ccccc21` (relative stereo) [Example 75, (2S,4S)-4-Amino-pyrrolidine-1,2-dicarboxylic acid 1-[(1-carbamoyl-1H-indol-3-yl)-amide] 2-[((1R*,2S*)-2-hydroxy-cyclohexylmethyl)-amide]] was tested, and the IC50 was 12.6 µM.
Work on `NC(=O)n1cc(NC(=O)N2C[C@H]3C[C@H]3[C@H]2C(=O)NCc2cccc(Cl)c2)c2ccccc21` (relative stereo) [Example 167, (1R*,2S*,5S*)-3-Aza-bicyclo[3.1.0]hexane-2,3-dicarboxylic acid 3-[(1-carbamoyl-1H-indol-3-yl)-amide] 2-(3-chloro-benzylamide)] yielded an IC50 of 0.108 µM.
`NC(=O)n1cc(NC(=O)N2C[C@@H]3C[C@@H]3[C@H]2C(=O)NCc2cccc(Cl)c2F)c2cc(OCCO)ccc21` (relative stereo) [Example 382, 1S*,2S*,5R*)-3-Aza-bicyclo[3.1.0]hexane-2,3-dicarboxylic acid 3-{[1-carbamoyl-5-(2-hydroxy-ethoxy)-1H-indol-3-yl]-amide}2-(3-chloro-2-fluoro-benzylamide] was tested, and the IC50 was 0.184 µM.
With `NC(=O)n1cc(CC(=O)N2C[C@@H]3C[C@@H]3[C@H]2C(=O)NCc2cccc(Cl)c2F)c2cc(OCCO)ccc21` (relative stereo) [Example 465, 3-{2-[(1S*,2S*,5R*)-2-(3-Chloro-2-fluoro-benzylcarbamoyl)-3-aza-bicyclo[3.1.0]hex-3-yl]-2-oxo-ethyl}-5-(2-hydroxy-ethoxy)-indole-1-carboxylic acid amide] the IC50 was 1.59 µM.

Same assay, conditions: read-out: IC50
For “2S,3R)-3-(2-Methoxy-ethylamino)-pyrrolidine-1,2-dicarboxylic acid 1-[(1-carbamoyl-1H-indol-3-yl)-amide]2-(3-chloro-2-fluoro-benzylamide [Example 423]”, the IC50 was 0.78 µM.
With “2S,3R)-3-Acetylamino-pyrrolidine-1,2-dicarboxylic acid 1-[(1-carbamoyl-1H-indol-3-yl)-amide]2-(3-chloro-2-fluoro-benzylamide [Example 422]” the IC50 was 0.888 µM.
With `NC(=O)n1cc(NC(=O)N2C[C@H](F)C[C@H]2C(=O)NC2CCOc3ccc(Cl)cc32)c2ccccc21` (mixture of isomers) [Example 326, (2S,4R)-4-Fluoro-pyrrolidine-1,2-dicarboxylic acid 1-[(1-carbamoyl-1H-indol-3-yl)-amide] 2-[(6-chloro-chroman-4-yl)-amide] (mixture of 2 diastereomers)] the IC50 was 7.15 µM.
With `NC(=O)n1cc(NC(=O)N2N=CCC2C(=O)NCc2cccc(Cl)c2F)c2ccccc21` (racemic) [Example 201, 4,5-Dihydro-pyrazole-1,5-dicarboxylic acid 1-[(1-carbamoyl-1H-indol-3-yl)-amide] 5-(3-chloro-2-fluoro-benzylamide)] the IC50 was 0.02 µM.
Compound `NC(=O)n1cc(NC(=O)N2N=CC[C@H]2C(=O)NCc2cccc(Cl)c2F)c2ccccc21` (single isomer, unassigned) [Example 362, S^§)-4,5-Dihydro-pyrazole-1,5-dicarboxylic acid 1-[(1-carbamoyl-1H-indol-3-yl)-amide]5-(3-chloro-2-fluoro-benzylamide] has an IC50 of 0.005 µM.
`NC(=O)n1cc(NC(=O)N2N=CC[C@@H]2C(=O)NCc2cccc(Cl)c2F)c2ccccc21` (single isomer, unassigned) [Example 363, R^§)-4,5-Dihydro-pyrazole-1,5-dicarboxylic acid 1-[(1-carbamoyl-1H-indol-3-yl)-amide]5-(3-chloro-2-fluoro-benzylamide] was tested, and the IC50 was 9.25 µM.
In the case of `C[C@@H](NC(=O)[C@@H]1[C@H](O)CCN1C(=O)Nc1cn(C(N)=O)c2ccccc12)c1cccc(Cl)c1F` (single isomer, unassigned) [Example 364], the IC50 is reported as 0.9 µM.
`C[C@H](NC(=O)[C@@H]1[C@H](O)CCN1C(=O)Nc1cn(C(N)=O)c2ccccc12)c1cccc(Cl)c1F` (single isomer, unassigned) [Example 365] was tested, and the IC50 was 0.045 µM.
Compound `COC(=O)C(NC(=O)[C@@H]1C[C@H](N)CN1C(=O)Nc1cn(C(N)=O)c2ccccc12)C(C)C` (stereo in doubt) [Example 94, (R)-2-{[(2S,4S)-4-Amino-1-(1-carbamoyl-1H-indol-3-ylcarbamoyl)-pyrrolidine-2-carbonyl]-amino}-3-methyl-butyric acid methyl ester] has an IC50 of 11 µM.
`NC(=O)n1cc(NC(=O)N2C[C@H](F)C[C@H]2C(=O)NCc2cccc(Cl)c2F)c2ccccc21` [Example 1] was tested, and the IC50 was 0.007 µM.
`NC(=O)n1cc(NC(=O)N2C[C@H](F)C[C@H]2C(=O)NCc2ccccc2)c2ccccc21` [Example 2, (2S,4R)-4-Fluoro-pyrrolidine-1,2-dicarboxylic acid 2-benzylamide 1-[(1-carbamoyl-1H-indol-3-yl)-amide]] showed an IC50 of 0.025 µM.
With `NC(=O)n1cc(NC(=O)N2C[C@H](F)C[C@H]2C(=O)NCc2cccnc2)c2ccccc21` [Example 3, (2S,4R)-4-Fluoro-pyrrolidine-1,2-dicarboxylic acid 1-[(1-carbamoyl-1H-indol-3-yl)-amide] 2-[(pyridin-3-ylmethyl)-amide]] the IC50 was 0.45 µM.
`COCCN(C)Cc1cc(Cl)c(F)c(CNC(=O)[C@@H]2C[C@@H](F)CN2C(=O)Nc2cn(C(N)=O)c3ccccc23)c1` [Example 4, (2S,4R)-4-Fluoro-pyrrolidine-1,2-dicarboxylic acid 1-[(1-carbamoyl-1H-indol-3-yl)-amide] 2-(3-chloro-2-fluoro-5-{[(2-methoxy-ethyl)-methyl-amino]-methyl}-benzylamide)] showed an IC50 of 3.98 µM.
In the case of `NC(=O)n1cc(NC(=O)N2C[C@H](F)C[C@H]2C(=O)N[C@H](CO)c2cccc(Cl)c2F)c2ccccc21` [Example 5, (2S,4R)-4-Fluoro-pyrrolidine-1,2-dicarboxylic acid 1-[(1-carbamoyl-1H-indol-3-yl)-amide] 2-{[(S)-1-(3-chloro-2-fluoro-phenyl)-2-hydroxy-ethyl]-amide}], the IC50 is reported as 0.03 µM.
With `NC(=O)n1cc(NC(=O)N2C[C@H](F)C[C@H]2C(=O)NCc2ccncc2)c2ccccc21` [Example 6, (2S,4R)-4-Fluoro-pyrrolidine-1,2-dicarboxylic acid 1-[(1-carbamoyl-1H-indol-3-yl)-amide] 2-[(pyridin-4-ylmethyl)-amide]] the IC50 was 2.1 µM.
Compound `NC(=O)n1cc(NC(=O)N2C[C@H](F)C[C@H]2C(=O)NCc2cccc(Cl)c2)c2ccccc21` [Example 8, (2S,4R)-4-Fluoro-pyrrolidine-1,2-dicarboxylic acid 1-[(1-carbamoyl-1H-indol-3-yl)-amide] 2-(3-chloro-benzylamide)] has an IC50 of 0.009 µM.
`NC(=O)n1cc(NC(=O)N2C[C@H](F)C[C@H]2C(=O)NCc2cccc(O)c2)c2ccccc21` [Example 9, (2S,4R)-4-Fluoro-pyrrolidine-1,2-dicarboxylic acid 1-[(1-carbamoyl-1H-indol-3-yl)-amide] 2-(3-hydroxy-benzylamide)] showed an IC50 of 0.25 µM.
Work on `CN1CCN(Cc2cc(Cl)c(F)c(CNC(=O)[C@@H]3C[C@@H](F)CN3C(=O)Nc3cn(C(N)=O)c4ccccc34)c2)CC1` [Example 10, (2S,4R)-4-Fluoro-pyrrolidine-1,2-dicarboxylic acid 1-[(1-carbamoyl-1H-indol-3-yl)-amide] 2-[3-chloro-2-fluoro-5-(4-methyl-piperazin-1-ylmethyl)-benzylamide]] yielded an IC50 of 0.604 µM.
Work on `NC(=O)n1cc(NC(=O)N2C[C@H](F)C[C@H]2C(=O)NCc2ccc(Cl)s2)c2ccccc21` [Example 11, (2S,4R)-4-Fluoro-pyrrolidine-1,2-dicarboxylic acid 1-[(1-carbamoyl-1H-indol-3-yl)-amide] 2-[(5-chloro-thiophen-2-ylmethyl)-amide]] yielded an IC50 of 0.007 µM.
`CCN(CC)Cc1cc(Cl)c(F)c(CNC(=O)[C@@H]2C[C@@H](F)CN2C(=O)Nc2cn(C(N)=O)c3ccccc23)c1` [Example 12, (2S,4R)-4-Fluoro-pyrrolidine-1,2-dicarboxylic acid 1-[(1-carbamoyl-1H-indol-3-yl)-amide] 2-(3-chloro-5-diethylamino-methyl-2-fluoro-benzyl-amide)] gave an IC50 of 11.1 µM.
`NC(=O)n1cc(NC(=O)N2C[C@H](F)C[C@H]2C(=O)N[C@H](CO)c2ccccc2)c2ccccc21` [Example 13, (2S,4R)-4-Fluoro-pyrrolidine-1,2-dicarboxylic acid 1-[(1-carbamoyl-1H-indol-3-yl)-amide] 2-[((S)-2-hydroxy-1-phenyl-ethyl)-amide]] was tested, and the IC50 was 0.139 µM.
`CC[C@H](C)[C@H](NC(=O)[C@@H]1C[C@@H](F)CN1C(=O)Nc1cn(C(N)=O)c2ccccc12)C(=O)OC(C)(C)C` [Example 15, (2S,3S)-2-{[(2S,4R)-1-(1-Carbamoyl-1H-indol-3-ylcarbamoyl)-4-fluoro-pyrrolidine-2-carbonyl]-amino}-3-methyl-pentanoic acid tert-butyl ester] gave an IC50 of 1.1 µM.
For `CN(C)CCN(C)Cc1cc(Cl)c(F)c(CNC(=O)[C@@H]2C[C@@H](F)CN2C(=O)Nc2cn(C(N)=O)c3ccccc23)c1` [Example 17, (2S,4R)-4-Fluoro-pyrrolidine-1,2-dicarboxylic acid 1-[(1-carbamoyl-1H-indol-3-yl)-amide] 2-(3-chloro-5-{[(2-dimethylamino-ethyl)-methyl-amino]-methyl}-2-fluoro-benzylamide)], the IC50 was 4.05 µM.
Work on `NC(=O)n1cc(NC(=O)N2C[C@H](F)C[C@H]2C(=O)NCc2cc(CN3CCOCC3)cc(Cl)c2F)c2ccccc21` [Example 18, (2S,4R)-4-Fluoro-pyrrolidine-1,2-dicarboxylic acid 1-[(1-carbamoyl-1H-indol-3-yl)-amide] 2-(3-chloro-2-fluoro-5-morpholin-4-ylmethyl-benzylamide)] yielded an IC50 of 0.815 µM.
With `COC1CCN(Cc2cc(Cl)c(F)c(CNC(=O)[C@@H]3C[C@@H](F)CN3C(=O)Nc3cn(C(N)=O)c4ccccc34)c2)CC1` [Example 20, (2S,4R)-4-Fluoro-pyrrolidine-1,2-dicarboxylic acid 1-[(1-carbamoyl-1H-indol-3-yl)-amide] 2-(3-chloro-2-fluoro-5-(4-methoxy-piperidin-1-ylmethyl)-benzylamide]] the IC50 was 1.13 µM.
`NC(=O)n1cc(NC(=O)N2C[C@H](F)C[C@H]2C(=O)NCc2ccccc2C(=O)O)c2ccccc21` [Example 23, 2-({[(2S,4R)-1-(1-Carbamoyl-1H-indol-3-ylcarbamoyl)-4-fluoro-pyrrolidine-2-carbonyl]-amino}-methyl)-benzoic acid] was tested, and the IC50 was 1.85 µM.
Work on `NC(=O)n1cc(NC(=O)N2C[C@H](F)C[C@H]2C(=O)NCc2cccc(C(=O)O)c2)c2ccccc21` [Example 24] yielded an IC50 of 1.7 µM.
